From patent EP0745595A1, “3-(3-Aryloxyphenyl)-1-(substituted methyl)-s-triazine-2,4,6-oxo or thiotrione herbicidal agents” (American Cyanamid Company, priority 1995, dated 1996)

Experiments:
Type in all cases: in vivo
[1] = tested on: ABUTILON THEOPHRASTI, MEDIC.; test: Postemergence herbicidal evaluation, ABUTH (Velvetleaf); details: for ABUTH, herbicide rating (0-9): rated four to five weeks after treatment, averaged
Procedure: (§1) In the tests, seedling plants are grown in jiffy flats for about two weeks. The test compounds are dispersed in 50/50 acetone/water mixtures containing 0.5% TWEEN®20, a polyoxyethylene sorbitan monolaurate surfactant of Atlas Chemical Industries, […] to the plants through a spray nozzle operating at 40 psi for a predetermined time. After spraying, the plants are placed on greenhouse benches and are cared for in the usual manner, commensurate with conventional greenhouse practices. From four to five weeks after treatment, the seedling plants are examined and rated according to the rating system set forth below. Where more than one test is involved for a given compound, the data are averaged.
(§2) Plant species employed in these evaluations are reported by header abbreviation, common name and scientific name.
(§3) Results of herbicide evaluation are expressed on a rating scale (0-9). The scale is based upon a visual observation of plant stand, vigor, malformation, size, chlorosis and overall plant appearance as compared with a control.

[2] = tested on: AMBROSIA ARTEMISIIFOLIA, L.; test: Postemergence herbicidal evaluation, AMBEL (Ragweed, Common); details: for AMBEL, herbicide rating (0-9): rated four to five weeks after treatment, averaged
Procedure: as §1, §2, §3

CASSIA OBTUSIFOLIA, L. = test: Postemergence herbicidal evaluation, CASOB (Sicklepod); set-up: key to CASOB rating / Herbicidal effect rating, CASOB / CASOB: 0-9 visual rating scale vs untreated control; details: for CASOB, herbicide rating (0-9): rated four to five weeks after treatment, averaged
Procedure: (§4) In the tests, seedling plants are grown in jiffy flats for about two weeks. The test compounds are dispersed in 50/50 acetone/water mixtures containing 0.5% TWEEN®20, a polyoxyethylene sorbitan monolaurate surfactant of Atlas Chemical Industries, in sufficient quantities to provide the equivalent of about 0.125 kg to 0.500 kg per hectare of active compound when applied to the plants through a spray nozzle operating at 40 psi for a predetermined time. After spraying, the plants are placed on greenhouse benches and are cared for in the usual manner, commensurate with conventional greenhouse practices. From four to five weeks after treatment, the seedling plants are examined and rated according to the rating system set forth below. Where more than one test is involved for a given compound, the data are averaged.
as §2, §3

CHENOPODIUM ALBUM, L. [3] = test: Postemergence herbicidal evaluation, CHEAL (Lambsquarters, Common); details: for CHEAL, herbicide rating (0-9): rated four to five weeks after treatment, averaged
Procedure: as §1, §2, §3

IPOMOEA SPP. = test: Postemergence herbicidal evaluation, IPOSS (Morningglory spp.); details: for IPOSS, herbicide rating (0-9): rated four to five weeks after treatment, averaged
Procedure: as §1, §2, §3

GALIUM APARINE = test: Postemergence herbicidal evaluation, GALAP (Galium); set-up: key to GALAP rating / Herbicidal effect rating, GALAP / GALAP: 0-9 visual rating scale vs untreated control
Procedure: as §4, §2, §3

[4] = tested on: ECHINOCHLOA CRUS-GALLI, (L) BEAU; test: Postemergence herbicidal evaluation, ECHCG (Barnyardgrass); set-up: key to ECHCG rating / Herbicidal effect rating, ECHCG / ECHCG: 0-9 visual rating scale vs untreated control
Procedure: as §4, §2, §3

[5] = tested on: SETARIA VIRIDIS, (L) BEAU; test: Postemergence herbicidal evaluation, SETVI (Foxtail, Green); set-up: key to SETVI rating / Herbicidal effect rating, SETVI / SETVI: 0-9 visual rating scale vs untreated control
Procedure: as §4, §2, §3

[6] = tested on: GLYCINE MAX(L) MERR. CV. WILLIAMS; test: Postemergence herbicidal evaluation, GLXMAW (Soybean, Williams); set-up: key to GLXMAW rating / Herbicidal effect rating, GLXMAW / GLXMAW: 0-9 visual rating scale vs untreated control
Procedure: as §4, §2, §3

[7] = tested on: ECHINOCHLOA ORYZOIDES (ARD.)FRITSCH; test: Preemergence weed control under flooded paddy conditions, ECHORC (Watergrass (Calif.)); details: for ECHORC herbicidal rating: preemergence weeds, rated three to four weeks after treatment
Procedure: as §3
(§5) Preemergence herbicidal activity under flooded paddy conditions is determined as follows: plant seeds or propagating organs are planted in the top 0.5 cm of silt loam soil in 32 oz. plastic containers with a diameter of 10.5 cm and no drainage holes. Water is added to these containers and maintained at 1.5 to 3 cm above the soil surface for the duration of the experiment. […] The treated containers are placed on greenhouse benches and cared for according to normal greenhouse procedures.- Three to four weeks after treatment the test is terminated and each container is examined and herbicidal effect rated according to the rating system provided in Example 40. The compounds evaluated are reported by compound number given in Example 40.
(§6) Plant species employed in this example are reported by header abbreviation, common name and scientific name.

CYPERUS IRIA = test: Preemergence weed control under flooded paddy conditions, CYPIR (Rice Flatsedge); details: for CYPIR herbicidal rating: preemergence weeds, rated three to four weeks after treatment
Procedure: as §3, §5, §6

[8] = tested on: CYPERUS SEROTINUS, ROTTB.; test: Preemergence weed control under flooded paddy conditions, CYPSE (Flatsedge); details: 0.500 kg/ha, preemergence, 3-4 weeks after treatment
Procedure: as §3, §5, §6

[…], PRESL. = Preemergence weed control under flooded paddy conditions, MOOVA (Monochoria); details: for MOOVA herbicidal rating: preemergence weeds, rated three to four weeks after treatment
Procedure: as §3
Preemergence herbicidal activity under flooded paddy conditions is determined as follows: plant seeds or propagating organs are planted in the top 0.5 cm of silt loam soil in 32 oz. plastic containers with a diameter of 10.5 cm and no drainage holes. Water is added to these containers and maintained at 1.5 to 3 cm above the soil surface for the duration of the experiment. The test compounds are applied as aqueous/acetone mixtures 50/50 v/v pipetted directly into the flood water to give the equivalent of about 0.5, 0.25, 0.125 and 0.063 kg/ha of active ingredient. The treated containers are placed on greenhouse benches and cared for according to normal greenhouse procedures.- Three to four weeks after treatment the test is terminated and each container is examined and herbicidal effect rated according to the rating system provided in Example 40. The compounds evaluated are reported by compound number given in Example 40.
as §6

SAGITTARIA PYGMAEA, L. = test: Preemergence weed control under flooded paddy conditions, SAGPY (Arrowhead (Pygmaea)); details: 0.500 kg/ha, preemergence, 3-4 weeks after treatment
Procedure: as §3, §5, §6

[9] = tested on: ORYZA SATIVA, L. TEBONNET; test: Rice tolerance to post-transplant applications under flooded paddy conditions, ORYSAT (Rice, Tebonnet); details: post-transplant rice; for ORYSAT herbicidal rating (rice tolerance): rated three to four weeks after treatment;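 as to ORYSAT herbicidal rating (rice tolerance): applied to flooded soil surface three days after transplanting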
Outline: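 Two ten-day-old Tebonnet rice seedlings transplanted into silt loam, flooded 1.5–3 cm; three days later the water surface treated with compounds in acetone/water at about 0.5, 0.25, 0.125 and 0.063 kg/ha. Visual 0–9 injury rating versus control after 3–4 weeks in greenhouse.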

CHENOPODIUM ALBUM, L. [10] = test: Preemergence herbicidal evaluation, CHEAL (Lambsquarters, Common); details: four to five weeks after treatment
Outline: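 Greenhouse preemergence test; treated soil cups received compound in aqueous acetone (about 0.125 to 0.50 kg/ha) right after sowing and were assessed visually 4-5 weeks later on a 0-9 scale compared with control plants.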

[11] = 0.500 kg/ha, preemergence, 3-4 weeks after treatment

## COC(=O)Cn1c(=O)n(C)c(=O)n(-c2cc(Oc3cc(Cl)cc(Cl)c3Cl)ccc2[N+](=O)[O-])c1=O [Compound 25, Methyl 3-[2-nitro-5-(2,3,5-trichloro-phenoxy)phenyl]tetrahydro-5-methyl-2,4,6-trioxo-s-triazine-1(2H)-acetate]
[1]; Rate 0.125 kg/ha
  ABUTH rating: 0.0
[1]; Rate 0.250 kg/ha
  ABUTH rating: 0.0
[1]; Rate 0.500 kg/ha
  ABUTH rating: 0.0
[2]; Rate 0.125 kg/ha
  AMBEL rating: 0.0
[2]; Rate 0.250 kg/ha
  AMBEL rating: 0.0
[2]; Rate 0.500 kg/ha
  AMBEL rating: 0.0
CASSIA OBTUSIFOLIA, L.; Rate 0.125 kg/ha
  CASOB rating: 0.0
CASSIA OBTUSIFOLIA, L.; Rate 0.250 kg/ha
  CASOB rating: 0.0
CASSIA OBTUSIFOLIA, L.; Rate 0.500 kg/ha
  CASOB rating: 0.0
CHENOPODIUM ALBUM, L. [3]; Rate 0.125 kg/ha
  CHEAL rating: 0.0
CHENOPODIUM ALBUM, L. [3]; Rate 0.250 kg/ha
  CHEAL rating: 0.0
CHENOPODIUM ALBUM, L. [3]; Rate 0.500 kg/ha
  CHEAL rating: 0.0
IPOMOEA SPP.; Rate 0.125 kg/ha
  IPOSS rating: 0.0
IPOMOEA SPP.; Rate 0.250 kg/ha
  IPOSS rating: 0.0
IPOMOEA SPP.; Rate 0.500 kg/ha
  IPOSS rating: 0.0
GALIUM APARINE; Rate 0.125 kg/ha
  GALAP rating: 0.0
GALIUM APARINE; Rate 0.250 kg/ha
  GALAP rating: 0.0
GALIUM APARINE; Rate 0.500 kg/ha
  GALAP rating: 0.0
[4]; Rate 0.125 kg/ha
  ECHCG rating: 0.0
[4]; Rate 0.250 kg/ha
  ECHCG rating: 0.0
[4]; Rate 0.500 kg/ha
  ECHCG rating: 0.0
[5]; Rate 0.125 kg/ha
  SETVI rating: 0.0
[5]; Rate 0.250 kg/ha
  SETVI rating: 0.0
[5]; Rate 0.500 kg/ha
  SETVI rating: 0.0
[6]; Rate 0.125 kg/ha
  GLXMAW rating: 0.0
[6]; Rate 0.250 kg/ha
  GLXMAW rating: 0.0
[6]; Rate 0.500 kg/ha
  GLXMAW rating: 0.0
[7]; [11]
  Herbicidal effect rating, ECHORC: 0.0
CYPERUS IRIA; [11]
  Herbicidal effect rating, CYPIR: 0.0
[8]
  Herbicidal effect rating, CYPSE: 0.0
[…], PRESL.; [11]
  Herbicidal effect rating, MOOVA: 0.0
SAGITTARIA PYGMAEA, L.
  Herbicidal effect rating, SAGPY: 0.0
[9]; 0.500 kg/ha, 3-4 weeks after treatment
  Herbicidal effect rating, ORYSAT: 0.0

## CCOC(=O)Cn1c(=O)n(C)c(=O)n(-c2cc(Oc3ccc(C(F)(F)F)cc3Cl)ccc2[N+](=O)[O-])c1=O [Compound 9, Ethyl 3-{5-[(2-chloro-α,α,α-trifluoro-p-tolyl)oxy]-2-nitrophenyl}tetrahydro-5-methyl-2,4,6-trioxo-s-triazine-1(2H)-acetate]
[1]; Rate 0.125 kg/ha
  ABUTH, herbicide rating (0-9): 9.0
[1]; Rate 0.250 kg/ha
  ABUTH, herbicide rating (0-9): 9.0
[1]; Rate 0.500 kg/ha
  ABUTH, herbicide rating (0-9): 9.0
[2]; Rate 0.125 kg/ha
  AMBEL, herbicide rating (0-9): 9.0
[2]; Rate 0.250 kg/ha
  AMBEL, herbicide rating (0-9): 9.0
[2]; Rate 0.500 kg/ha
  AMBEL, herbicide rating (0-9): 9.0
CASSIA OBTUSIFOLIA, L.; Rate 0.125 kg/ha
  CASOB, herbicide rating (0-9): 9.0
CASSIA OBTUSIFOLIA, L.; Rate 0.250 kg/ha
  CASOB, herbicide rating (0-9): 9.0
CASSIA OBTUSIFOLIA, L.; Rate 0.500 kg/ha
  CASOB, herbicide rating (0-9): 9.0
CHENOPODIUM ALBUM, L. [3]; Rate 0.125 kg/ha
  CHEAL, herbicide rating (0-9): 9.0
CHENOPODIUM ALBUM, L. [3]; Rate 0.250 kg/ha
  CHEAL, herbicide rating (0-9): 9.0
CHENOPODIUM ALBUM, L. [3]; Rate 0.500 kg/ha
  CHEAL, herbicide rating (0-9): 9.0
IPOMOEA SPP.; Rate 0.125 kg/ha
  IPOSS, herbicide rating (0-9): 9.0
IPOMOEA SPP.; Rate 0.250 kg/ha
  IPOSS, herbicide rating (0-9): 9.0
IPOMOEA SPP.; Rate 0.500 kg/ha
  IPOSS, herbicide rating (0-9): 9.0
CHENOPODIUM ALBUM, L. [10]; Rate 0.125 kg/ha
  CHEAL rating: 9.0
CHENOPODIUM ALBUM, L. [10]; Rate 0.250 kg/ha
  CHEAL rating: 9.0
CHENOPODIUM ALBUM, L. [10]; Rate 0.500 kg/ha
  CHEAL rating: 9.0
[7]; Rate 0.063 kg/ha
  ECHORC herbicidal rating: 9.0
[7]; Rate 0.125 kg/ha
  ECHORC herbicidal rating: 9.0
[7]; Rate 0.250 kg/ha
  ECHORC herbicidal rating: 9.0
[7]; Rate 0.500 kg/ha
  ECHORC herbicidal rating: 9.0
CYPERUS IRIA; Rate 0.063 kg/ha
  CYPIR herbicidal rating: 9.0
CYPERUS IRIA; Rate 0.125 kg/ha
  CYPIR herbicidal rating: 9.0
CYPERUS IRIA; Rate 0.250 kg/ha
  CYPIR herbicidal rating: 9.0
CYPERUS IRIA; Rate 0.500 kg/ha
  CYPIR herbicidal rating: 9.0
[…], PRESL.; Rate 0.063 kg/ha
  MOOVA herbicidal rating: 9.0
[…], PRESL.; Rate 0.125 kg/ha
  MOOVA herbicidal rating: 9.0
[…], PRESL.; Rate 0.250 kg/ha
  MOOVA herbicidal rating: 9.0
[…], PRESL.; Rate 0.500 kg/ha
  MOOVA herbicidal rating: 9.0
[9]; Rate 0.063 kg/ha
  ORYSAT herbicidal rating (rice tolerance): 3.3
[9]; Rate 0.125 kg/ha
  ORYSAT herbicidal rating (rice tolerance): 3.7
[9]; Rate 0.250 kg/ha
  ORYSAT herbicidal rating (rice tolerance): 5.7
[9]; Rate 0.500 kg/ha
  ORYSAT herbicidal rating (rice tolerance): 6.0
